Where two headings read alike, the source gives them in different places.
Columns and labels:
ETA Receptor = biological target: T1, ETA Receptor (Rattus norvegicus, UniProt P26684); assay: [125I]ET-1 binding to membranes from MMQ cells (ETA receptor binding assay, Table 4); conditions: test compound at 1 μM, 0.1 nM [125I]ET-1, MMQ cell membranes, 4 hours at 25° C.
T1 construct: endogenous in cells; host or cells: MMQ rat pituitary cells (membranes)
T1 sequence (P26684 21-426): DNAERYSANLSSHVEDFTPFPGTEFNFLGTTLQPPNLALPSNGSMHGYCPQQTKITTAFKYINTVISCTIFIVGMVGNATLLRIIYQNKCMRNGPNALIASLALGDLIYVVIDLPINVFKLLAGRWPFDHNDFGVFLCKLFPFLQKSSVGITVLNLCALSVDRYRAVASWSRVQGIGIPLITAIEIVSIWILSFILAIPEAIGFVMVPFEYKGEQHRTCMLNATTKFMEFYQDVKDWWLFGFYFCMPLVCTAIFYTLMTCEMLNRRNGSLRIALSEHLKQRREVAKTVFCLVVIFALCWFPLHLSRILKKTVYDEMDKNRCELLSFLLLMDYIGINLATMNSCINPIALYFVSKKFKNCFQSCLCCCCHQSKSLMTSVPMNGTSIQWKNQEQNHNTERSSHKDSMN

[1] = test system: ET-1-induced phosphatidylinositol hydrolysis in MMQ cells; assay: Determination of ET-1-induced phosphatidylinositol (PI) hydrolysis in MMQ cells; assay type: cell-based, rat; conditions: 1 nM ET-1 challenge, read-out: IC50 (inhibition of ET-induced increase in PI turnover)
Method: MMQ cells (0.4×10^6 cells/mL) were labeled with 10 μCi/mL of [^3H]myo-inositol in RPMI for 16 hours. The cells were washed with PBS, then incubated with Buffer A containing protease inhibitors and 10 mM LiCl for 60 minutes. The cells were then incubated with test compounds for 5 minutes, and then challenged with 1 nM ET-1. ET-1 challenge was terminated by the addition of 1.5 mL of 1:2 (v/v) chloroform-methanol. Total inositol phosphates were extracted after adding chloroform and water to give final proportions of 1:1:0.9 (v/v/v) chloroform-methanol-water as described by Berridge (Biochem. J. 206 587–595 (1982)). The upper aqueous phase (1 mL) was retained and a small portion (100 μL) was counted. The rest of the aqueous sample was analyzed by batch chromatography using anion-exchange resin AG1-X8 (Bio-Rad). […] The results of the above study clearly indicate that the compounds act as functional ET antagonists.

[2] = biological target: T2, ETB receptors of porcine cerebellar tissues (pET-B) (Sus scrofa, UniProt P35463); assay: ETA/ETB selectivity: (125I)ET-3 competition binding, ETB assay in porcine cerebellum membranes (pET-B); conditions: porcine cerebellum membranes; 0.1 nM (125I)ET-3; read-out: pET-B IC50
T2 construct: porcine cerebellar tissues (known to contain ETB receptors); from tissue; host or cells: porcine cerebellum (membranes)
T2 sequence (P35463 27-443): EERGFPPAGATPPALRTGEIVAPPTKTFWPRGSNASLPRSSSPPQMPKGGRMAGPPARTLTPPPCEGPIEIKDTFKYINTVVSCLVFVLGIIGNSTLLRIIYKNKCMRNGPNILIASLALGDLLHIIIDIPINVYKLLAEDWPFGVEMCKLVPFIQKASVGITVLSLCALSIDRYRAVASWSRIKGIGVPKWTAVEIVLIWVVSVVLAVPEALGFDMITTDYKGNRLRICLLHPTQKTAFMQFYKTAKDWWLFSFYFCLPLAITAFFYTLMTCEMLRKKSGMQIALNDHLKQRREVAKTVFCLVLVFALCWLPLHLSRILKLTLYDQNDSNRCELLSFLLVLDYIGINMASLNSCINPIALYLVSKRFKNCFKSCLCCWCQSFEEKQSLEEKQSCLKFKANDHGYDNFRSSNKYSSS
Method: (§1) The mixture was centrifuged at 1000×g for 10 min. The supernatant was collected and centrifuged at 60,000×g for 60 min. The precipitate was resuspended in 20 mM Tris, pH 7.4 containing protease inhibitor and centrifuged again. The final membrane pellet was resuspended in 20 mM Tris, pH 7.4 containing protease inhibitors and stored at −80° C. until used. Protein content was determined by the Bio-Rad dye-binding protein assay.
(§2) Binding assays were performed in 96-well microtiter plates pretreated with 0.1% BSA. […] After incubation, unbound ligands were separated from bound ligands by a vacuum filtration method using glass-fiber filter strips in PHD cell harvesters (Cambridge Technology, Inc., MA), washing the filter strips three times with saline (1 mL). Nonspecific binding was determined in the presence of 1 μM ET-1. IC50 values are calculated using an average of at least two separate determinations.

[3] = biological target: T3, ETA receptor in MMQ cells (rET-A) (Rattus norvegicus, UniProt P26684); assay: ETA/ETB selectivity: (125I)ET-1 competition binding, ETA assay in MMQ cell membranes (rET-A); conditions: MMQ cell membranes; for IC50: 0.1 nM (125I)ET-1, read-out: rET-A IC50
T3 construct: endogenous in cells; host or cells: MMQ rat pituitary cells (membranes)
T3 sequence (P26684 21-426): T1 sequence (P26684 21-426)
Method: as §1, §2

human ETA receptor = biological target: T4, human ETA receptor (Homo sapiens, UniProt P25101); assay: ETA/ETB selectivity: (125I)ET-1 competition binding, CHO cells transfected with human ETA receptor (hET-A)
T4 construct: expressed in transfected cells; host or cells: CHO cells, permanently transfected
T4 sequence (P25101 21-427): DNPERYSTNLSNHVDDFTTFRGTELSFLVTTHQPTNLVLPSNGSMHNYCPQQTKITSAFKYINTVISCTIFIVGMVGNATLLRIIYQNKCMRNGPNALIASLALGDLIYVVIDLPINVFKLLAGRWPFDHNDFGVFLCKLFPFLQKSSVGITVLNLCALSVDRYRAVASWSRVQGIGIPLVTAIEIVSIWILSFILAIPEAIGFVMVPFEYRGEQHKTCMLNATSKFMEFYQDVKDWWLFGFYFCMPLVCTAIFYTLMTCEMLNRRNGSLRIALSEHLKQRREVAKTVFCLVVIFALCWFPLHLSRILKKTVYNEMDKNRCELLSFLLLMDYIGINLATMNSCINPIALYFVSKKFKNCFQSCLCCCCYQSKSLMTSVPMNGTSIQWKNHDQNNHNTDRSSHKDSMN
Method: as §1, §2

human ETB receptor = biological target: T5, human ETB receptor (Homo sapiens, UniProt P24530); assay: ETA/ETB selectivity: (125I)ET-3 competition binding, CHO cells transfected with human ETB receptor (hET-B)
T5 construct: expressed in transfected cells; host or cells: CHO cells, permanently transfected
T5 sequence (P24530 27-442): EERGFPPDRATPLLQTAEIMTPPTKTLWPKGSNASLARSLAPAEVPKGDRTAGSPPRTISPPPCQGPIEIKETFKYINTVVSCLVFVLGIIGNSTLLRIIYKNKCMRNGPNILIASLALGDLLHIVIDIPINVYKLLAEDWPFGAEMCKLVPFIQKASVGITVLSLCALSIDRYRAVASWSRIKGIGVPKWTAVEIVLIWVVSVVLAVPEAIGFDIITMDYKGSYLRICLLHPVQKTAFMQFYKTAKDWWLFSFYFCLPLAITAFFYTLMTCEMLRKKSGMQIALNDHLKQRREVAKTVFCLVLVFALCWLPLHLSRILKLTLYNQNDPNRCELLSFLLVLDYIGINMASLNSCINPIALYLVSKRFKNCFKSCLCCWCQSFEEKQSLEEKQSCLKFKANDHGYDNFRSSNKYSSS
Method: MMQ cells, porcine cerebellar tissues (known to contain ETB receptors) and chinese hamster ovary cells (CHO) permanently transfected with the human ETA or ETB receptor were homogenized in 25 ml of 10 mM Hepes (pH 7.4) containing 0.25 M sucrose and a protease inhibitor [50 mM EDTA, 0.1 mM PMSF, 5 μg/ml Pepstatin A, and 0.025% Bacitracin] using a micro ultrasonic cell disrupter. The mixture was centrifuged at 1000×g for 10 min. The supernatant was collected and centrifuged at 60,000×g for 60 min. The precipitate was resuspended in 20 mM Tris, pH 7.4 containing protease inhibitor and centrifuged again. The final membrane pellet was resuspended in 20 mM Tris, pH 7.4 containing protease inhibitors and stored at −80° C. until used. Protein content was determined by the Bio-Rad dye-binding protein assay.
Binding assays were performed in 96-well microtiter plates pretreated with 0.1% BSA. Membranes prepared from cells were diluted 100 fold in Buffer B (20 mM Tris, 100 mM NaCl, 10 mM MgCl2, pH 7.4, with 0.2% BSA, 0.1 mM PMSF, 5 μg/mL Pepstatin A, 0.025% bacitracin, and 50 mM EDTA) to a final concentration of 0.2 mg/mL of protein. In competition binding studies, membranes (0.02 mg) were incubated with 0.1 nM of (^125I)ET-1 (for ETA assay in MMQ or CHO cells transfected with human ETA receptor) or (^125I)ET-3 (for ETB assay in porcine cerebellum or CHO cells transfected with human ETB receptor) in Buffer B (final volume: 0.2 mL) in the presence of increasing concentrations of the test compound for 3 hours at 25° C. After incubation, unbound ligands were separated from bound ligands by a vacuum filtration method using glass-fiber filter strips in PHD cell harvesters (Cambridge Technology, Inc., MA), washing the filter strips three times with saline (1 mL). Nonspecific binding was determined in the presence of 1 μM ET-1. IC50 values are calculated using an average of at least two separate determinations.

[4] = Determination of plasma protein binding (ultrafiltration, HPLC); assay type: in vitro ADME; set-up: fraction unbound at 1 h: dose or concentration left out as unconfirmed; conditions: fresh plasma, 1 hour at room temperature, read-out: percent of bound compound (plasma protein binding, % PB) (converted)
Method: A stock solution of the test compound in 50% ethanol (2 mg/mL) was diluted 10× into PBS. A 0.4 mL sample of this secondary stock solution was added to 3.6 mL of fresh plasma, and incubated at room temperature for 1 hour. A 1 mL sample of this incubation mixture was transferred to a Centrifree ultrafiltration tube. The sample was centrifuged in a fixed-bucket rotor for approximately 2 min and the filtrate was discarded. The sample was centrifuged for another 15–30 min. A 100 μL sample of the ultrafiltrate was transfered to a micro HPLC sample vial containing […] of HPLC mobile phase and mixed thoroughly. A 50 μL sample was injected and the concentration of drug in the ultrafiltrate was determined by HPLC analysis compared against a standard sample prepared identically in the absence of plasma. Ultrafiltrate concentrations are calculated from a calibration curve. Protein binding is calculated according to the equation: % PB=[1−(Cu/Ci)]*100%
where Cu is the ultrafiltrate concentration and Ci is the initial plasma concentration.

| Compound | % Inhibition of ETA at 1 μM (ETA Receptor) [%] | IC50 [1] [nM] | IC50 [2] [nM] | IC50 ([1]; Rattus norvegicus) [nM] | IC50 [3] [nM] | also measured |
| --- | --- | --- | --- | --- | --- | --- |
| COc1ccc(C2C(C(=O)O)C(c3ccc4c(c3)OCO4)CN2CC(=O)N(C)CC(C)C)cc1 (stereo not drawn) [Example 48, trans,trans-2-(4-Methoxyphenyl)-4-(1,3-benzodioxol-5-yl)-1-(N-methyl-N-isobutylaminocarbonylmethyl)-pyrrolidine-3-carboxylic acid] | 96.3 | 0.4 |  |  |  |  |
| CCCCCS(=O)(=O)N(CCC)CCN1C[C@H](c2ccc3c(c2)OCO3)[C@@H](C(=O)O)[C@@H]1c1ccc(OC)c(F)c1 [Example 534] |  |  | 0.36 | 50 |  |  |
| CC=CC(C)(C)CC1C(C(=O)O)C(c2cc(OC)c3c(c2)OCO3)CN1CC(=O)N(CCCC)CCCC (stereo not drawn) [Example 553] |  |  | 42400 | 0.4 | 0.26 | inhibition at 1 µM ([3]; 1 μM test compound): 100%; IC50 (human ETA receptor): 0.29 nM; IC50 (human ETB receptor): 39500 nM |
| CCCCN(C(=O)CN1CC(c2ccc3c(c2)OCO3)C(C(=O)O)C1c1ccc(OC)cc1)c1cccc(CN)c1 (stereo not drawn) [compound 532] |  |  | 3200 |  | 5.1 | inhibition at 1 µM (ETA Receptor; read-out: % Inhibition of ETA at 1 μM): 100%; fraction unbound at 1 h [4]: 0.032 |

Further lines, with some results ahead:

| % Inhibition of ETA at 1 μM (ETA Receptor) [%] | IC50 [1] [nM] | IC50 [2] [nM] | Compound | IC50 ([1]; Rattus norvegicus) [nM] | IC50 [3] [nM] | also measured |
| --- | --- | --- | --- | --- | --- | --- |
| 100.0 | 9.8 |  | CCCCN(C(=O)CN1CC(c2ccc3c(c2)OCO3)C(C(=O)O)C1c1ccc(OC)cc1)c1ccccc1 (stereo not drawn) [Example 291, trans,trans-2-(4-Methoxyphenyl)-4-(1,3-benzodioxol-5-yl)-1-(N-butyl-N-phenylaminocarbonylmethyl)-pyrrolidine-3-carboxylic acid] |  |  |  |
| 96.1 | 1.2 |  | CCCN(CCN1CC(c2ccc3c(c2)OCO3)C(C(=O)O)C1c1ccc(OC)cc1)S(=O)(=O)c1ccc(OC(F)(F)F)cc1 (stereo not drawn) [Example 300, trans,trans-2-(4-Methoxyphenyl)-4-(1,3-benzodioxol-5-yl)-1-(2-(N-propyl-N-(4-trifluoromethoxybenzenesulfonyl)amino)ethyl)-pyrrolidine-3-carboxylic acid] |  |  |  |

— US7208517B1, “Endothelin antagonists” (Abbott Labortories, priority 1994, dated 2007)
